Four compounds from patent US4760052A, “1,6-dicarba-vasopressin compounds” (Smithkline Beckman Corporation, priority 1987, dated 1988) can be followed below.

*1 amine or outer side, *2 acyl side, *3 side chain or, on linkers, in order; H or OH if unused. Where a SMILES comes first, the peptide text is derived from it. Bridges are numbered along the chain shown (N, C = ends). [ ]: non-standard residue; d: D form. X1 = O=C(CC1(S[*:2])CCCCC1)[*:1]

Experiment [1] has as its target vasopressin receptors (V2 -receptors) (Sus scrofa, UniProt P32307). The experiment in a line: biochemical.
Description: Antagonistic activity toward the natural anti-diuretic hormone (anti ADH activity) is determined, in vitro, in the medullary tissue of hog or human kidneys and, in vivo, in the hydropenic rat.
These values represent total and non specific binding, respectively.
Experiment [2] deals with vasopressin stimulated adenylate cyclase. Put plainly: vasopressin stimulated adenylate cyclase activity, kidney medullary membrane. It is filed as biochemical. As to conditions: Swine; antagonism of vasopressin stimulated adenylate cyclase. The protocol:
In the test procedure for assay of adenylate cyclase activity, the amount of ^32 P/cAMP formed in the absence of medullary membrane is determined (blank). The blank value is subtracted from all experimental data. The compound is tested for its effect on basal adenylate cyclase activity and/or on vasopressin stimulated activity. Each determination is carried out in triplicate. The Ka value is derived from a Lineweaver-Burkeplot. Rel. Vmax =(Vmax drug/Vmax vasopressin) x 100. Ki =I/[Ka'/Ka)-1] where I is the concentration of the antagonist and Ka' and Ka are the concentrations of vasopressin required to give half maximal activity of adenylate cyclase in the presence and absence of antagonist, respectively.

The test system of a further experiment is hydropenic rat. Put plainly: Hydropenic Rat Screen (anti-ADH activity in vivo). The note with it: intraperitoneal, dose required to lower urine osmolality to 300 m-Osmoles/kg. The protocol:
The assay for anti-ADH activity in vivo is the hydropenic rat protocol described below:
Food and water are removed from male rats approximately 18 hours prior to testing. Animals are housed 4 per metabolism cage. At 0 hour, the test compound is administered intraperitoneally to the test group and an equivalent volume of vehicle is administered to both control groups (fasted and non-fasted). Urine volume and osmolality are measured every hour for 4 hours. Test values are recorded as ml of urine excreted (cumulative), mEg/rat electrolyte excreted, mg/rat urea excreted, and osmolality in milli-Osmoles/kg H2 O. A […] is used to determine significance. ED300 is defined as the dose of compound (μg/kg) required to lower urine osmolality to 300 m-Osmoles/kg.

Chain of vasopressin receptors (V2 -receptors) (P32307 whole entry): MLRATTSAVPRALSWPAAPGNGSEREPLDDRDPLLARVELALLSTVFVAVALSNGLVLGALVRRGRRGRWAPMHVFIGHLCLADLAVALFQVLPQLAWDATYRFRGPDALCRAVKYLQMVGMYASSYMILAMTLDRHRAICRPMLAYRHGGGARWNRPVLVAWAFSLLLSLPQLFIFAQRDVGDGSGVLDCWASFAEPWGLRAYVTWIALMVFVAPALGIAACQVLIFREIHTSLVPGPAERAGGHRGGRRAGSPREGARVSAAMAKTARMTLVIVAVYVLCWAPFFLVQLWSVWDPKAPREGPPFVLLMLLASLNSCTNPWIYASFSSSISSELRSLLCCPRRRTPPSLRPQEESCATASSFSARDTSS

Compound `CCOc1ccc(C[C@H]2NC(=O)CC3(CCCCC3)SSC[C@H](C(=O)N3CCC[C@H]3C(=O)N[C@@H](CCCNC(=N)N)C(N)=O)NC(=O)[C@H](CC(N)=O)NC(=O)[C@H](C(C)C)NC(=O)[C@H](Cc3ccccc3)NC2=O)cc1` [B, reference compound] ([dY](Et)FVN[dC]PR-NH2; linker N-5 via X1) returned a Kb in experiment [1] of 170 nM.

For `CCOc1ccc(C[C@H]2NC(=O)CC3(CCCCC3)CCC[C@H](C(=O)N3CCC[C@H]3C(=O)N[C@@H](CCCNC(=N)N)C(N)=O)NC(=O)[C@H](CC(N)=O)NC(=O)[C@H](C(C)C)NC(=O)[C@H](Cc3ccccc3)NC2=O)cc1` [Compound D, [1,6(6,6-cyclopentamethylene-2-amino-D-suberic acid)2-(O--ethy1D-tyrosine)-4-valine-9-desglycine]vasopressin], in experiment [1], the Kb stood at 72 nM.

Take `CCOc1ccc(C[C@H]2NC(=O)CC3(CCCCC3)SSC[C@@H](C(=O)N3CCC[C@H]3C(=O)N[C@@H](CCCNC(=N)N)C(N)=O)NC(=O)[C@H](CC(N)=O)NC(=O)[C@H](C(C)C)NC(=O)[C@H](Cc3ccccc3)NC2=O)cc1` [A, [1(mercapto-β,cyclopentamethylenepropionic acid)2-(O--ethylD-tyrosine)-4-valine-8-arginine-9-desglycine]vasopressin, reference compound] ([dY](Et)FVNCPR-NH2; linker N-5 via X1): in experiment [1], the Kb came to 12 nM.

Turning to `CCOc1ccc(C[C@H]2NC(=O)CC3(CCCCC3)CCC[C@@H](C(=O)N3CCC[C@H]3C(=O)N[C@@H](CCCNC(=N)N)C(N)=O)NC(=O)[C@H](CC(N)=O)NC(=O)[C@H](C(C)C)NC(=O)[C@H](Cc3ccccc3)NC2=O)cc1` [Compound C, [1,6(6,6-cyclopentamethylene-2-amino-L-suberic acid)2-(O--ethylD-tyrosine)-4-valine-9-desglycine]vasopressin], the Ki in experiment [2] came out at 4.3 nM. In the experiment on hydropenic rat, this compound yielded an ED300 of 8.9 µg/kg. Moreover, the Kb in experiment [1] stood at 8.2 nM.
